Test results: ChEMBL document CHEMBL5303765, “Data for DCP probe BAY-7081” (2023)

Columns and labels:
[1] = target: Tyrosine-protein kinase ABL1 (Homo sapiens) (UniProt P00519); assay: ABL1 SGC Tm panel (DSF); conditions: for ΔTm: Compound concentration 10.0 uM
[2] = target: Serine/threonine-protein kinase B-raf (Homo sapiens) (UniProt P15056); assay: BRAF SGC Tm panel (DSF); conditions: for ΔTm: Compound concentration 10.0 uM
[3] = target: Calcium/calmodulin-dependent protein kinase type 1G (Homo sapiens) (UniProt Q96NX5); assay: CAMK1G SGC Tm panel (DSF); conditions: for ΔTm: Compound concentration 10.0 uM
Chain of Calcium/calmodulin-dependent protein kinase type 1G (Homo sapiens) (Q96NX5 whole entry): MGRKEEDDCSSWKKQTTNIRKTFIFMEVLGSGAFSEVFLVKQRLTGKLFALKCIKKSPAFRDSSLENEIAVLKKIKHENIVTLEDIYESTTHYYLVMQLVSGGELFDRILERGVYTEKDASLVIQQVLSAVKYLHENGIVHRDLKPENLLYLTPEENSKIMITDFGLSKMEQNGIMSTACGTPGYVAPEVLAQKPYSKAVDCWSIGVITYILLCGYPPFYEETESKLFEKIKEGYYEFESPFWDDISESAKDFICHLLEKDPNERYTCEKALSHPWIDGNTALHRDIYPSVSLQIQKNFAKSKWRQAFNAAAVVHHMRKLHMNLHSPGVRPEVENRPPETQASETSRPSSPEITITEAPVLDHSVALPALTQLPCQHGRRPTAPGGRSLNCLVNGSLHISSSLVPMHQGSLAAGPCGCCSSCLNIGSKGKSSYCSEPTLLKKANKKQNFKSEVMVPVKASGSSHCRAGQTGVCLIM

[4] = target: Cyclin-dependent kinase-like 1 (Homo sapiens) (UniProt Q00532); assay: CDKL1 SGC Tm panel (DSF); conditions: for ΔTm: Compound concentration 10.0 uM
Chain of Cyclin-dependent kinase-like 1 (Homo sapiens) (Q00532 whole entry): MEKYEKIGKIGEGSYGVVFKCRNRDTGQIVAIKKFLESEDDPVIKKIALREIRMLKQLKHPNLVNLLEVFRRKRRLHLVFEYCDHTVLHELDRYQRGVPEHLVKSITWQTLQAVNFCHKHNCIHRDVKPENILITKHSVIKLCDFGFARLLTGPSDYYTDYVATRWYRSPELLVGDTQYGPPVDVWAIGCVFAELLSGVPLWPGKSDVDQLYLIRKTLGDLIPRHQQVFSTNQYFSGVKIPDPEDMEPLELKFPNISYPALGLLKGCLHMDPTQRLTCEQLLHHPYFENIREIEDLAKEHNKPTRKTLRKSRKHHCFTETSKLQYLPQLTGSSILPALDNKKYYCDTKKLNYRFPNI

[5] = target: Ephrin type-A receptor 2 (Homo sapiens) (UniProt P29317); assay: EPHA2 SGC Tm panel (DSF); conditions: for ΔTm: Compound concentration 10.0 uM
Chain of Ephrin type-A receptor 2 (Homo sapiens) (P29317 whole entry): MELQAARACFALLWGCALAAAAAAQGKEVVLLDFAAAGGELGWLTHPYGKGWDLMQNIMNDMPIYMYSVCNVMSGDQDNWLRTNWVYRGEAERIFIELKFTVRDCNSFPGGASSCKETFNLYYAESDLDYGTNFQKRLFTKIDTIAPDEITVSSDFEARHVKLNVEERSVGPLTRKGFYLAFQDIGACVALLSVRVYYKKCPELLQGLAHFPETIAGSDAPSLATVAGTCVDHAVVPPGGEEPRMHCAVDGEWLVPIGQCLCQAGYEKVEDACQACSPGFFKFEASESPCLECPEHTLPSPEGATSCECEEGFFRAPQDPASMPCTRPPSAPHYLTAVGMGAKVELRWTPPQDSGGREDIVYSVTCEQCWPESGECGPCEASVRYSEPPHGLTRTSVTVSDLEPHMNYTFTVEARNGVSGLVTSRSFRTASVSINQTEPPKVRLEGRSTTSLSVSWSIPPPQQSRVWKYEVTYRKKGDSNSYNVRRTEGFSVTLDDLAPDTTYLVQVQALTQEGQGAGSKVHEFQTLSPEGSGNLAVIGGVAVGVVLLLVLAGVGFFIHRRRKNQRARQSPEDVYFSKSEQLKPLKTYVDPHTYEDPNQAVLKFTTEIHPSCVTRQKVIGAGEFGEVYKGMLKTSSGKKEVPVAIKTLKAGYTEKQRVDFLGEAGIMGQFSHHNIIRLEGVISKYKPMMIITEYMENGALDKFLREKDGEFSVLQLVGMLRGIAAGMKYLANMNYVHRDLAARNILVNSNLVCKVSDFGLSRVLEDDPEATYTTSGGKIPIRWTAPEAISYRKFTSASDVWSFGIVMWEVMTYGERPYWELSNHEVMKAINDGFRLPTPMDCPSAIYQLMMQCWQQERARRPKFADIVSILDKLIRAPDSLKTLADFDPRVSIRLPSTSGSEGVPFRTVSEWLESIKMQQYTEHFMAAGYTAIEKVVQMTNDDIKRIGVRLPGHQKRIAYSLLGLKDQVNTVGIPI

[6] = target: Mitogen-activated protein kinase 10 (Homo sapiens) (UniProt P53779); assay: MAPK10 SGC Tm panel (DSF); conditions: for ΔTm: Compound concentration 10.0 uM
Chain of Mitogen-activated protein kinase 10 (Homo sapiens) (P53779 whole entry): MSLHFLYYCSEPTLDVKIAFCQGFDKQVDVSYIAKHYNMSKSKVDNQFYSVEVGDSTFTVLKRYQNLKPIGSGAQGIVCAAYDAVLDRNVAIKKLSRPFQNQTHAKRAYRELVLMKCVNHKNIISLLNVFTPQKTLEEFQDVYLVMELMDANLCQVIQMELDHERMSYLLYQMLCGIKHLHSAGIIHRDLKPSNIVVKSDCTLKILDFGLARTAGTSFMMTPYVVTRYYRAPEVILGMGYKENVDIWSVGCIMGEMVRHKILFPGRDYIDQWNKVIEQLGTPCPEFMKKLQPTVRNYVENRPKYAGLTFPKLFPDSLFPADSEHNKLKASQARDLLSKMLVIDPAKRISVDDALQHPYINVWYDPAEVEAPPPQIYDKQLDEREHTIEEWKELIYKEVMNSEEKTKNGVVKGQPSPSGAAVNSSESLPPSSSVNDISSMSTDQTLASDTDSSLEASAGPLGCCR

[7] = target: T1, Mitogen-activated protein kinase 13 (Homo sapiens) (UniProt O15264); assay: MAPK13 SGC Tm panel (DSF); conditions: for ΔTm: Compound concentration 10.0 uM
T1 sequence (whole entry): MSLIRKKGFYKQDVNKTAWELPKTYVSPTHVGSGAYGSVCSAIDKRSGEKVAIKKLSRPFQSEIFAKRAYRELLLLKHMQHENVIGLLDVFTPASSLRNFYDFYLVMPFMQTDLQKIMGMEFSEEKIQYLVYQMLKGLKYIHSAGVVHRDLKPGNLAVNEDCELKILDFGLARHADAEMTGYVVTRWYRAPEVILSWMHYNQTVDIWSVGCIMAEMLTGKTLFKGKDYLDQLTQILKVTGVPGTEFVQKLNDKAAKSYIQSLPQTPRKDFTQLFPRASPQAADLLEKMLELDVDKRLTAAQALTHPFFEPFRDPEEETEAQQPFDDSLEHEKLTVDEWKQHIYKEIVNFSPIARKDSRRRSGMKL

[8] = target: T2, Mitogen-activated protein kinase 15 (Homo sapiens) (UniProt Q8TD08); assay: MAPK15 SGC Tm panel (DSF); conditions: for ΔTm: Compound concentration 10.0 uM
T2 sequence (whole entry): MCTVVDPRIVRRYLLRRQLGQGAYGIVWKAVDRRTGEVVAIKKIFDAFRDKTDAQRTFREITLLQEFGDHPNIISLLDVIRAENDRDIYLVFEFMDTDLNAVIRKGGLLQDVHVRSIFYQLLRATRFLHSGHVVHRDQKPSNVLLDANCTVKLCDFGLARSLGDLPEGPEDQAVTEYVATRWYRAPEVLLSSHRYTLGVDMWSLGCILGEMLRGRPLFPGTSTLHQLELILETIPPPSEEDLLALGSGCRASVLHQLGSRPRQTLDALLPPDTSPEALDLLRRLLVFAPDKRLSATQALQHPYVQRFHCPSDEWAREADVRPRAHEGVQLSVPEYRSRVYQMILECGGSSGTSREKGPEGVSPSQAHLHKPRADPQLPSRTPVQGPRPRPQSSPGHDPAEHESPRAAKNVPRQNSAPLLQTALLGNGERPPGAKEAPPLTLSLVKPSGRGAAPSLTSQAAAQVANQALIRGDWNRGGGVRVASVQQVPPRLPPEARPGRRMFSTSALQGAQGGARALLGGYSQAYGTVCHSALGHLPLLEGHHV

[9] = target: T3, Phosphorylase b kinase gamma catalytic chain, liver/testis isoform (Homo sapiens) (UniProt P15735); assay: PHKG2 SGC Tm panel (DSF); conditions: for ΔTm: Compound concentration 10.0 uM
T3 sequence (whole entry): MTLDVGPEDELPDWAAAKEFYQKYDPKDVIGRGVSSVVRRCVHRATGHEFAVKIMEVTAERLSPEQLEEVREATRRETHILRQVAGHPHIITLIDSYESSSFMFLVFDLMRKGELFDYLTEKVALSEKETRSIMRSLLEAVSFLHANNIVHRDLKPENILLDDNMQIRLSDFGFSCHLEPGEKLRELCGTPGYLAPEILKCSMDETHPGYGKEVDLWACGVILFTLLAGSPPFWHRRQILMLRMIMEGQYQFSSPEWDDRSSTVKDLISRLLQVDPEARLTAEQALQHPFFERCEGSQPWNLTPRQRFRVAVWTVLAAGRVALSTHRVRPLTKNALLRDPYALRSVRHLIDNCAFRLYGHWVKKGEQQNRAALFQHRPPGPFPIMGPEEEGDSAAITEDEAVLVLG

[10] = target: Ribosomal protein S6 kinase alpha-5 (Homo sapiens) (UniProt O75582); assay: RPS6KA5 SGC Tm panel (DSF); conditions: for ΔTm: Compound concentration 10.0 uM
Chain of Ribosomal protein S6 kinase alpha-5 (Homo sapiens) (O75582 whole entry, looked up): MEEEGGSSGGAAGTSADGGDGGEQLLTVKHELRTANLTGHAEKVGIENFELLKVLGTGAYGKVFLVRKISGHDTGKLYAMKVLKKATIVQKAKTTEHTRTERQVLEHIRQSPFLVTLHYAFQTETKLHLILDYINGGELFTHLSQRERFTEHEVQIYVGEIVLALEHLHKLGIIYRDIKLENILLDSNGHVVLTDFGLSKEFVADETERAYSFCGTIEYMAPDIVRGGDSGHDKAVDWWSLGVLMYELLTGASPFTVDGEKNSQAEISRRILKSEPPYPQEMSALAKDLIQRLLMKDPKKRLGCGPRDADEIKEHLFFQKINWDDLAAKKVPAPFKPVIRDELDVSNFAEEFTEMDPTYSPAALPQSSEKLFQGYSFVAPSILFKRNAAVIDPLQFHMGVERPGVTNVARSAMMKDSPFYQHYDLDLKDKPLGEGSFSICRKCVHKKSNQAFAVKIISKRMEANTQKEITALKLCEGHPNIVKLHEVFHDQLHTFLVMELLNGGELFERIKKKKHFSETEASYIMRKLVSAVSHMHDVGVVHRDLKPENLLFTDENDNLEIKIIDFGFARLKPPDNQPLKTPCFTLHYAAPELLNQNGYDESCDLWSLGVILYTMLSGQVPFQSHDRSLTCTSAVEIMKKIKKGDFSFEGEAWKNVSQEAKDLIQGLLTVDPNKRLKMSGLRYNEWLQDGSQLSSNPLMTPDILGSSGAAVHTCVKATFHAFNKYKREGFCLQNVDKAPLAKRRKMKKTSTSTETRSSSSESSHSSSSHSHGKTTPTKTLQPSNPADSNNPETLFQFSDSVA

[11] = target: T4, Alpha-2A adrenergic receptor (Homo sapiens) (UniProt P08913); conditions: Compound concentration 10.0 uM
T4 sequence (whole entry): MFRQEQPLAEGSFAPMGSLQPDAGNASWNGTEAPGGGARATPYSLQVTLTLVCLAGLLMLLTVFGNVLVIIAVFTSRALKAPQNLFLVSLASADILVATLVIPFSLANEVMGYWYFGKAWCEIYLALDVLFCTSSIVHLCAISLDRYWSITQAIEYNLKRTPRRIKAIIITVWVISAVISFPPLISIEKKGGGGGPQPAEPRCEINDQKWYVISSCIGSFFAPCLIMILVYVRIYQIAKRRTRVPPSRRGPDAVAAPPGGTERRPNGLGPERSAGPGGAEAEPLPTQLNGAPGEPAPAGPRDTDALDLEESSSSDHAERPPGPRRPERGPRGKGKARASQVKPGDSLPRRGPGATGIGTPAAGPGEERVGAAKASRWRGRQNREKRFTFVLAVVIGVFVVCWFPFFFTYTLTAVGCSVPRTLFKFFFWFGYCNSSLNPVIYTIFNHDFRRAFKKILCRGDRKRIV

Rattus norvegicus = species on record: Rattus norvegicus; conditions: Compound concentration 10.0 uM

Chain of Serine/threonine-protein kinase B-raf (Homo sapiens) (P15056 whole entry): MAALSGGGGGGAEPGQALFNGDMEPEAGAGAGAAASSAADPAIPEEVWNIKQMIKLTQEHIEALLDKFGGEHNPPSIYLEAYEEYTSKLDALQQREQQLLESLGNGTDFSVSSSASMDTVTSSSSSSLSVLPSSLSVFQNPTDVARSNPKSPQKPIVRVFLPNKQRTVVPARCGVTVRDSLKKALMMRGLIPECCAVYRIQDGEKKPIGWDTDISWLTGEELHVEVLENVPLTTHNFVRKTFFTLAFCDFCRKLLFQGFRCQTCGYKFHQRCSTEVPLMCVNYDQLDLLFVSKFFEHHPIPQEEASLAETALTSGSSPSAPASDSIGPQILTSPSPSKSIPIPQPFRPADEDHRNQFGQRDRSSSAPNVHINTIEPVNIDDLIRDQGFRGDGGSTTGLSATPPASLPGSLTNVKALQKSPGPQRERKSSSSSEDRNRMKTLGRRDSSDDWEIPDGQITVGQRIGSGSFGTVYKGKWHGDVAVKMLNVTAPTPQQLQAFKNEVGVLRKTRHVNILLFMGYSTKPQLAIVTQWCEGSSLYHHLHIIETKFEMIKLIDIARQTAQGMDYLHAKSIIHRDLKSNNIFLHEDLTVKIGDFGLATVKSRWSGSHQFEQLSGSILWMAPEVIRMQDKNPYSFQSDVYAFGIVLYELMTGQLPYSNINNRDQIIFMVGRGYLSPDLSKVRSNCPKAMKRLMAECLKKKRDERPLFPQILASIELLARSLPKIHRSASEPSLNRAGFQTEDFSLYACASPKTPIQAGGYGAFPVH
Chain of Tyrosine-protein kinase ABL1 (Homo sapiens) (P00519 whole entry): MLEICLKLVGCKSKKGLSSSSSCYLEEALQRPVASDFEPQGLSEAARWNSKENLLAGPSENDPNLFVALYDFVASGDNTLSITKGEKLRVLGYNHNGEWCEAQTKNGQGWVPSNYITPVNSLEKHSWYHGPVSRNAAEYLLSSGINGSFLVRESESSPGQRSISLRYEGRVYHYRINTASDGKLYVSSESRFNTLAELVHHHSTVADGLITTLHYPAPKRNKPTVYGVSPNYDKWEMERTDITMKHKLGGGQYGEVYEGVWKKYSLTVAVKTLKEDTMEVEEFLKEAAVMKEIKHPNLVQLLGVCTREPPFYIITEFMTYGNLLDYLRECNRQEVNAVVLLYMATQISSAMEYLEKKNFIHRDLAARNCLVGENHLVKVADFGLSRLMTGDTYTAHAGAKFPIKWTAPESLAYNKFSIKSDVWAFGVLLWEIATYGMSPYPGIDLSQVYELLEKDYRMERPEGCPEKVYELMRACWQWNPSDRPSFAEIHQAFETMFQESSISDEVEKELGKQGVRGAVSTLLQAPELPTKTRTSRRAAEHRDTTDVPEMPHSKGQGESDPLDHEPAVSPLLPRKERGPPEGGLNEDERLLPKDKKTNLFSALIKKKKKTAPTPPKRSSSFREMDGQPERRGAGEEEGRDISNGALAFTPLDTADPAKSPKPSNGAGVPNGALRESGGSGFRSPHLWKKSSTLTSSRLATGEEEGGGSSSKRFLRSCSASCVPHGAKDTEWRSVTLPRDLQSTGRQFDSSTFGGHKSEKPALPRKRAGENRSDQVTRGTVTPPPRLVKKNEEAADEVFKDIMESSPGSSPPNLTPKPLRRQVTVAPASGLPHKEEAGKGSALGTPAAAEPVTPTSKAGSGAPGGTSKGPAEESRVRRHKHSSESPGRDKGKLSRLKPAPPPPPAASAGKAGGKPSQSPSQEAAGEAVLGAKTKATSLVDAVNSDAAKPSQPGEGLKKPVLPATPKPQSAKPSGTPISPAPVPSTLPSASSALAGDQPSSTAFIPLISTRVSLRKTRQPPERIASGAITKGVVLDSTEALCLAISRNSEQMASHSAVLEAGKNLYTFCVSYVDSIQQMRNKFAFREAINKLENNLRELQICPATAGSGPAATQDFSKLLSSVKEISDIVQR

SMILES | delta Tm Staurosporine positive control [1] | ΔTm [1] | delta Tm Staurosporine positive control [2] | ΔTm [2] | delta Tm Staurosporine positive control [3] | ΔTm [3] | delta Tm Staurosporine positive control [4] | ΔTm [4] | delta Tm Staurosporine positive control [5] | ΔTm [5] | delta Tm Staurosporine positive control [6] | ΔTm [6] | delta Tm Staurosporine positive control [7] | ΔTm [7] | delta Tm Staurosporine positive control [8] | ΔTm [8] | delta Tm Staurosporine positive control [9] | ΔTm [9] | delta Tm Staurosporine positive control [10] | ΔTm [10] | also measured
CCC[C@@H]1CNCc2c1[nH]c(=O)c(C#N)c2N1CCC2(CC1)CC2 | 8.44 | 0.0781 | 1.08 | -0.0823 | 11.2 | -0.416 | 7.07 | -0.229 | 7.41 | -0.623 | 6.75 | -0.405 | 8.03 | 0.124 | 16.4 | 0.0332 | 21.5 | -0.827 | 13.8 | -0.505 | inhibition [11]: 9.55%; inhibition (Rattus norvegicus): 0.4%
CCC[C@H]1CNCc2c1[nH]c(=O)c(C#N)c2N1CCC2(CC1)CC2 | 8.44 | 0.111 | 1.08 | -0.134 | 11.2 | -0.348 | 7.07 | -0.0258 | 7.41 | -0.621 | 6.75 | -0.509 | 8.03 | 0.098 | 16.4 | -0.258 | 21.5 | -0.755 | 13.8 | -0.275 | inhibition [11]: 5.64%; inhibition (Rattus norvegicus): 10.4%
